Assay results: patent publication US20190000789A1, “COMPOSITION AND METHOD FOR TREATING INFECTIONS CAUSED BY VANCOMYCIN-RESISTANT INFECTIOUS AGENTS IN A SUBJECT” (priority 2015, published 2019)
Read-outs that look alike come from different tables or passages of the source.

Columns and labels:
[1] = test system: S. coelicolor M145 ΔvanX (LAG3); assay: MIC of vancomycin on MM agar plates with added D-Ala; format: cell-based, Streptomyces coelicolor; details: Streptomyces coelicolor
Text: VanX effectively eradicates the D-Ala-D-Ala dipeptide, thereby counteracting the accumulation of wild-type precursors and supporting vancomycin resistance (Lessard and Walsh, 1999; Tan et al., 2002). Therefore, a vanX null mutant was created using a similar strategy as for ddl, replacing the coding region of vanX by the apramycin resistance cassette aacC4. The mutant was created in both the parental strain S. coelicolor M145 and in its ddl suppressor mutant LAG2, generating LAG3 (M145 ΔvanX) and LAG4 (M145 Δddl ΔvanX vanS::IS466A), respectively.
LAG4 produced 20% wt precursors prior to the addition of D-Ala.
Escherichia coli strains JM109 (Sambrook et al., 1989) and ET12567 (Kieser et al., 2000) were used for routine cloning procedures and for extracting non-methylated DNA, respectively. Cells of E. coli were grown in Luria-Berani broth (LB) at 37° C. Streptomyces coelicolor A3(2) M145 was the parent of all mutants described in this work. All media and routine Streptomyces techniques were carried out as described (Kieser et al., 2000). SFM (soy flour mannitol) agar plates were used for propagating S. coelicolor strains and to prepare spore suspensions. For liquid-grown cultures, S. coelicolor mycelia were grown in normal minimal media with phosphate (NMMP) supplemented with 1% (w/v) mannitol as the sole carbon source. The MIC of vancomycin against S. coelicolor M145 and its mutant derivatives were determined by growth on minimal media (MM) agar plates supplemented with 1% mannitol as the sole carbon source, and 0, 2, 4, 8, 16, 32, 64, 128, 256 or 512 μg/ml vancomycin, in combination with 0, 1, 5, 10 or 50 mM of D-Ala or L-Ala. The vanX deletion mutants have been tested with 1, 5, 10, 50 and 100 μM D-Ala and L-Ala.

S. coelicolor LAG2 = assay: LC-MS analysis of peptidoglycan precursors, including time course after alanine addition; format: cell-based, Streptomyces coelicolor
Experimental: In order to get more insights into the synthesis of vancomycin-sensitive (i.e., wild-type) or the alternate vancomycin-resistant peptidoglycan, the pool of peptidoglycan precursors was analyzed by Liquid Chromatography coupled to Mass Spectrometry (LC-MS). When cells produce wild-type PG, only the MurNac-pentapeptide with a D-Ala-D-Ala terminus are detected, while vancomycin-resistant PG precursors have a D-Ala-D-Lac terminus. To analyze the precursors produced in S. coelicolor M145 and its mutant derivatives LAG1 (Δddl) and LAG2 (Δddl vanS::IS466A) in the presence or absence of vancomycin, the strains were grown until exponential phase, after which the cultures were harvested, washed and the precursors extracted with 5% TCA. The supernatants were desalted, concentrated and analyzed by LC-MS (see Materials and Methods section).
To investigate what the effect would be of the addition of excess of D-Ala on the accumulation of wild-type precursors, a time-course experiment was performed to follow the effect of D-Ala addition on the ratio between wild-type and resistant precursors. Therefore, 300 ml liquid-grown NMMP cultures were supplemented with either D-Ala or L-Ala (control) at 50 mM end concentration, and 10 ml samples were collected prior to and 1, 5, 15, 30, 60, 120 and 180 minutes after the addition of either alanine stereoisomer. Samples were immediately filtered by vacuum filtration, washed in 0.9% NaCl, biomass scraped off the filter, added to a tube containing 5% TCA and samples prepared as described above. […] However, addition of 50 mM D-Ala triggered the production of small amounts of wt precursor (1%) within 1 minute. After 15 minutes, this amount had increased to 4%, which appeared to be close to the maximum, with levels of wt precursors never exceeding 5%.
For the precursor isolation and identification, a modification of the method described previously by Hong and colleagues (Hong et al., 2004) was used. 10 μg vancomycin was added to the strains at the moment of inoculation. The strains were grown in NMMP (1% (w/v) Mannitol, 50 mM MgCl2) until mid-log phase (OD-0.3-0.4) and mycelia were harvested by centrifugation at 4° C. and washed in 0.9% NaCl. The mycelium was extracted with 5% cold trichloric acid (TCA) for 30 minutes at 4° C. This was centrifuged and the supernatant desalted on a Sephadex G-25 column (Illustra NAP-10 Columns, GE Healthcare, Pittsburgh), and concentrated by rotary evaporation. The concentrated precursors were dissolved in HPLC-grade water and separated by LC-MS using a gradient of 0-20% acetonitrile in water with 0.1% TFA. The elution was monitored at 254 nm and monitored by the sizes eluted (1193.8-1195.3).
For the measurement over time, the protocol was adjusted in the following way: 300 ml NMMP cultures were grown until exponential phase, at which point a 10 ml sample was taken (sample t=0) and 50 mM of D-Ala or L-Ala was added, followed by further sampling after 1, 5, 15, 30, 60, 120 and 180 minutes. Samples were rapidly filtered with a vacuum pump and washed with 0.9% (w/v) NaCl, mycelia scraped off the filter and transferred to 5% TCA.

CN[C@H](CC(C)C)C(=O)N[C@H]1C(=O)N[C@@H](CC(N)=O)C(=O)N[C@H]2C(=O)N[C@H]3C(=O)N[C@H](C(=O)N[C@H](C(=O)O)c4cc(O)cc(O)c4-c4cc3ccc4O)[C@H](O)c3ccc(c(Cl)c3)Oc3cc2cc(c3O[C@@H]2O[C@H](CO)[C@@H](O)[C@H](O)[C@H]2O[C@H]2C[C@](C)(N)[C@H](O)[C@H](C)O2)Oc2ccc(cc2Cl)[C@H]1O [vancomycin]
MIC ([1]; read-out: MIC of vancomycin, M145 ΔvanX, 0 μM D-Ala): 32 µg/mL
MIC ([1]; read-out: MIC of vancomycin, M145 ΔvanX, 10 μM D-Ala): 16 µg/mL
MIC ([1]; read-out: MIC of vancomycin, M145 ΔvanX, 50 μM D-Ala): 1 µg/mL
MIC ([1]; read-out: MIC of vancomycin, M145 ΔvanX, 50 μg/ml D-Ala): 1 µg/mL
MIC ([1]; read-out: MIC of vancomycin, M145 ΔvanX, 100 μM D-Ala): 1 µg/mL
precursors terminated with D-Ala-D-Lac (S. coelicolor LAG2; LAG2 grown with vancomycin): 99.8%
wild-type (vancomycin-sensitive) peptidoglycan (S. coelicolor LAG2; LAG2 with vancomycin (FIG. 3B)): less than 1%
